Reference: the NIST ThermoML archive (doi:10.1021/je900598y)

What was measured:
[1] = 298.15 K; 101.33 kPa; Liquid
[2] = excess molar enthalpy (molar enthalpy of mixing); xn = mol fraction of the nth substance listed; settings: 298.15 K, Liquid, Calvet calorimetry

CCCCCCCCCCCCCCCC [hexadecane]
Settings	mass density [kg/m3]
[1]	770.31

CCCCC(=O)OC(=O)CCCC [pentanoic anhydride]
Settings	mass density [kg/m3]
[1]	939.15

CCCCC(=O)OC(=O)CCCC [pentanoic anhydride] + CCCCCCCCCCCC
[2]
Settings	excess molar enthalpy [kcal/mol]
x1 = 0.0248	0.0469
x1 = 0.0484	0.0865
x1 = 0.0709	0.118
x1 = 0.0923	0.146
x1 = 0.1128	0.169
x1 = 0.1324	0.189
x1 = 0.1511	0.207
x1 = 0.1691	0.222
x1 = 0.1914	0.239
x1 = 0.2126	0.253
x1 = 0.2327	0.265
x1 = 0.2518	0.276
x1 = 0.2699	0.285
x1 = 0.2827	0.292
x1 = 0.3038	0.299
x1 = 0.3195	0.305
x1 = 0.3411	0.315
x1 = 0.3488	0.317
x1 = 0.3569	0.319
x1 = 0.3654	0.321
x1 = 0.3743	0.323
x1 = 0.3837	0.325
x1 = 0.3935	0.327
x1 = 0.4025	0.328
x1 = 0.4118	0.329
x1 = 0.4217	0.33
x1 = 0.432	0.331
x1 = 0.4428	0.332
x1 = 0.4542	0.333
x1 = 0.4644	0.333
x1 = 0.475	0.333
x1 = 0.4861	0.332
x1 = 0.4978	0.332
x1 = 0.51	0.331
x1 = 0.5229	0.329
x1 = 0.5342	0.327
x1 = 0.5461	0.326
x1 = 0.5585	0.323
x1 = 0.5715	0.32
x1 = 0.5851	0.317
x1 = 0.5993	0.313
x1 = 0.6122	0.309
x1 = 0.6257	0.305
x1 = 0.6398	0.3
x1 = 0.6545	0.294
x1 = 0.6699	0.287
x1 = 0.6861	0.28
x1 = 0.7003	0.272
x1 = 0.7151	0.265
x1 = 0.7305	0.256
x1 = 0.7467	0.246
x1 = 0.7635	0.235
x1 = 0.7811	0.223
x1 = 0.7967	0.211
x1 = 0.8129	0.199
x1 = 0.8298	0.185
x1 = 0.8474	0.17
x1 = 0.8657	0.153
x1 = 0.8849	0.135
x1 = 0.9022	0.117
x1 = 0.9202	0.0976
x1 = 0.9389	0.0768
x1 = 0.9584	0.0528
x1 = 0.9788	0.028

CCCCCCCCCCCCCC [tetradecane]
Settings	mass density [kg/m3]
[1]	760.2

CCCCCCCCCCCC [dodecane]
Settings	mass density [kg/m3]
[1]	745.28
